Columns and labels:
[1] = tested on: Male Wistar rats; test: Vogel test (drinking conflict test), anxiolytic effect; format: in vivo, rat (Wistar); details: for minimal effective dose: ip, 0.5 h, rat, intraperitoneally, half an hour before testing, read-out: MED (minimum effective dose), Vogel test; for anxiolytic activity (in words): Vogel test, compared with Meprobamate or within the group
Procedure: 1.1. Vogel test (drinking conflict test)
The anxiolytic effect was tested by using the method of Vogel et al. Male Wistar rats of 160 to 180 g body weight were kept free of food and drinking water for 24 and 48 hours, respectively. Test and carrier substances were administered intraperitoneally half an hour before testing. Animals within the experimental chamber were provided with drinking water through an inserted tube. After the animals' each twenty lapping for water the device emitted a 2 mA intensity electric shock through the drinking tube. During 5 minutes the shocks tolerated by the animals in order to quench their thirst were counted. The effect of treatment was expressed as the % increase of the tolerated shocks. The minimum effective dose (MED) was determined for each test compound [Volge, J. R., Beer, B., Clody, D. E.: Psychopharmacologia (Berl.) 21, 1 (1971)].

[2] = Acute toxicity on mice (Litchfield and Wilcoxon); details: mouse, in vivo, po
Procedure: The test was carried out according to the method of Litchfield and Wilcoxon [Litchfield, J. T. and Wilcoxon, F. W.: J. Pharmacol. Exp. Ther., 96, 99 (1949)] by using white mice belonging to the CFLP strain and weighing 10 to 22 g, 10 animals per dose. The test compounds were administered orally in a volume of 20 cm^3 /kg.

[3] = tested on: gastric-acid secretion; test: Gastric-acid-secretion test (Shay); format: in vivo, rat; details: po; rat, p.o., 4 hours after ligature; read-out: Acid-secretion inhibition, ED50
Procedure: 2. […] The liberated gastric-acid content was determined by titration 4 hours after the ligature of the duodenum.

[4] = tested on: mice; test: Effect on the spontaneous motor activity (Borsy), sedative effect; format: in vivo, mouse; details: Mus musculus, po, 0.5 h; mice, orally, 30 minutes; read-out: ID50, spontaneous motor activity
Procedure: 2.1. Effect on the spontaneous motor activity
The test was carried out according to the method of Borsy et al. Groups consisting of 3 mice each were treated orally with different doses of the compounds to be tested. Then the test animals were placed into a 10-channel Dews system equipment. In this equipment the number of interruptions of infrared beam within 30 minutes was counted. […] Int. Pharmacodyn. 124, 1 (1960)].

[5] = target: T1, H^+ /K^+ -ATP-ase (Sus scrofa, UniProt P19156); test: H+/K+-ATP-ase inhibition on partially purified pig's microsome specimen; format: biochemical
T1 construct: on partially purified pig's microsome specimen; from tissue; host or cells: pig stomach, partially purified microsomes
T1 sequence (P19156 2-1034 limits assumed): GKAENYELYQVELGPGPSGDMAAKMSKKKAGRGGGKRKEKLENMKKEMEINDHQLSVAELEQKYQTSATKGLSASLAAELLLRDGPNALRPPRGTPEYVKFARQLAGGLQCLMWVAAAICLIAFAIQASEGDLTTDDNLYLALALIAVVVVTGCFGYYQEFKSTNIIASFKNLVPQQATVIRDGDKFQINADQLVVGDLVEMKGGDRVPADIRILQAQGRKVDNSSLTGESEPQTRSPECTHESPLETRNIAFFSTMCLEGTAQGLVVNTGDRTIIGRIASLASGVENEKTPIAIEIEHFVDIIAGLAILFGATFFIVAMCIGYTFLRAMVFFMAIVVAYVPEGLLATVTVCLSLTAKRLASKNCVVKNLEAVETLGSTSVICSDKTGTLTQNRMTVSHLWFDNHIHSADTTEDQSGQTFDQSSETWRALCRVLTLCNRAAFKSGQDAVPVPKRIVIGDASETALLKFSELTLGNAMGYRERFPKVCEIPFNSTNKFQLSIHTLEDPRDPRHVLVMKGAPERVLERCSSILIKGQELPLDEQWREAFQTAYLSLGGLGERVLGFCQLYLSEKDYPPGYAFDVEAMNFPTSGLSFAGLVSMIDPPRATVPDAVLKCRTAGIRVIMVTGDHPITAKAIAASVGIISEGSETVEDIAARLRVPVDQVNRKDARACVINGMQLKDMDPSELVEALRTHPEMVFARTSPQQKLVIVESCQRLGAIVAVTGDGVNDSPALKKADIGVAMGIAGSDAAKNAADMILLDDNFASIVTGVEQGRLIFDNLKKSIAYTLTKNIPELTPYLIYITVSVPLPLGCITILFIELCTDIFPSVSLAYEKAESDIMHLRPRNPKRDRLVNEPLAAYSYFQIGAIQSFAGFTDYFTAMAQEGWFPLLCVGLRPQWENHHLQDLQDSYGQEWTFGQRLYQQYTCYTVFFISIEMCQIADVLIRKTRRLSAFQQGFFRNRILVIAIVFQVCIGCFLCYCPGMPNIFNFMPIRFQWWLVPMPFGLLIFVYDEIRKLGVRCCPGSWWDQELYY
T1 sequence (P18434 whole entry partner): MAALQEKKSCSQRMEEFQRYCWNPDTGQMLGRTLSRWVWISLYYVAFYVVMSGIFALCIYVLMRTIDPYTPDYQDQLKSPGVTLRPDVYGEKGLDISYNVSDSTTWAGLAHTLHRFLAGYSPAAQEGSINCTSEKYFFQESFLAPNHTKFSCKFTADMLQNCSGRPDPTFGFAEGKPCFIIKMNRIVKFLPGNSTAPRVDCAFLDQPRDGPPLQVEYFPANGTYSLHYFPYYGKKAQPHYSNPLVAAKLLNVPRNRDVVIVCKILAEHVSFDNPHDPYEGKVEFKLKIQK
Procedure: 1. H^+ /K^+ -ATP-ase inhibition on pig's stomach
The test was carried out according to the method of Rabon and Sachs [E. C. Rabon et al.: Preparation of gastric H^+ K^+ -ATP-ase, Methods in Enzymology, 157, 649-651 (1988)]. The activity of the prepared enzyme was measured both in the presence as in the absence of K^+ ions. The difference in the libaration of phosphorus representing the activity of the enzyme was measured.

[6] = tested on: Male Wistar rats; test: Conditioned avoidance response inhibition, antipsychotic effect; format: in vivo, rat (Wistar); details: rat, 30 mg/kg p.o.; ++ = p < 0.05
Procedure: Conditioned avoidance response inhibition
The antipsychotic (neuroleptic) effect was measured by the inhibition of the learned conditioned avoidance reflex. The male Wistar rats, used for the study, were of 120-150 g body weight at the commencement of learning. A shuttle box was used as experimental device; it consists of two parts, 24×24.5×23 cm each, separated by a wall with a 6×9 cm gate. In response to a sutiable warning stimulus, in order to avoid the punishing (unconditioned) stimulus, animals within the box passed through the gate from one part to the other. The warning, i.e. conditioned stimulus (CS), a white light (1 Hz) blinking for 15 seconds, was applied at the place of the actual animal existence. The unconditioned stimulus (US), in form of 0.6 mA intensity electric shock, was randomly applied to the paw during the last 5 seconds of the conditioned stimulus. The animal's movement during the CS and US from one part of the box to the other, was defined as avoidance and escape responses, respectively. Both responses ceased the actual stimulus and stopped the trial. The time elapsed until the next trial (intertrial interval, ITI) was 15 seconds. While one experiment was carried out daily, an experiment consisted of 80 trials. Learning efficiency was expressed as percentage of the successful to the total avoidances. Effect of the neuroleptic drugs was examined in animals with stabilized conditioned reflexes and with at least 75% learning efficiency. Dosing was carried out once a week, one hour before the measurement in the shuttle box. To calculate the neuroleptic effect (50% inhibiting dose, ID50) , results obtained after the treatment were compared to those obtained on the previous day (controls).

[7] = tested on: erosion of the stomach wall; test: Cytoprotective effect, ethanol erosion (Robert); format: in vivo; details: rat
Procedure: 3. The cytoprotective effect was determined according to the method of Robert [Robert, A.: Cytoprotection by prostaglandins. […] Rats weighing 200 to 250 g were used as test animals. 1 cm^3 of abs. ethanol was introduced to the stomach to produce an erosion of the stomach wall. The length and frequency of the lesions (erosion index and frequency) were measured and the percentage inhibition of lesion formation compared with vehicle-treated animals was calculated.

[8] = Acute toxicity on mice (Litchfield and Wilcoxon); details: mouse, in vivo, ip
[9] = tested on: rat's parietal cell; test: 14C-aminopyrine accumulation by parietal cells; format: cell-based, rat (Wistar); details: stimulated rat parietal cells; read-out: ED50, inhibition of aminopyrine accumulation
Procedure: 4. Measurement of ^14 C-aminopyrine accumulation by parietal cells
Gastric mucosal cells were prepared from rat stomach. Wistar rats (130-160 g) were killed by decapitation, the stomachs were rapidly excised and their contents were washed out with saline. The stomachs were then everted and filled with 2.5 mg/ml of pronase containing buffer. These sacs were incubated for 60 minutes at 37° C. in carbogen gassed medium. This incubation was followed by gentle stirring at room temperature for 45 minutes by a magnetic stirrer in order to disperse the cells from the mucosa of the everted stomachs digested only from the serosal side. The viability of the cells was determined by trypan-blue exclusion test. The percentage of the parietal cells was determined on the basis of their morphological characteristics.
Acid production of the cells prepared in this way could be induced by cyclic AMP, histamine (in the presence of 3-isobutyl-1-methylxanthine) or carbachol. The acid production was assessed by measuring the accumulation of ^14 C-aminopyrine. The undissociated weak base can penetrate into the acid-containing compartments of the cells. […] Thus, the distribution of ^14 C-aminopyrine between the extracellular and intracellular spaces is an indirect quantitative index for the cellular acid production [W. Schepp, J. Schmidtler, C. […]

[10] = tested on: Male rats (Sprague Dawley); test: Elevated plus maze test on rat, anxiolytic effect; format: in vivo, rat (Sprague Dawley); details: po, 1 h, p.o., pretreatment 60 minutes, read-out: MED (minimum effective dose), elevated plus maze
Procedure: 1.2. Elevated plus maze test on rat
The test was carried out with the aid of a wooden plus-shaped maze elevated to a height of 50 cm. Two arms--opposite to one another--were enclosed up to a height of 40 cm along their longer sides and at the end. The other two arms were without walls (open arms). The central 15×15 cm part was open. Male rats belonging to the Sprague Dawley strain and weighing 220 to 260 g were used as test animals. After pretreatment lasting 60 minutes the animals were placed into the central part of the maze. During the 5 minutes observation period the following parameters were recorded: […]
time spent on the open arms time spent on the closed arms number of open arm entries number of closed arm entries
The drug effect was expressed as percent increase of the time spent on the open arms and number of open arm entries. The minimum effective dose which caused a significant increase of the time spent on the open arms was calculated for every substance [Pelow, S., Chopin, P., File, S. E., Briley, M.: J. Neurosci. Methods 14, 149-167 (1985)].

SMILES	minimal effective dose [1]	LD50 at 336 h [2]	ED50 [3]	ED50 [4]	IC50 [5]	Inhibition of the conditioned reflex (%) [6]	ED50 ([7]; po, 1 cm^3 abs. ethanol)	Ratio of acid-secretion inhibition and erosion inhibition ([7]; ratio of ED50 values, p.o.)	LD50 at 336 h [8]	IC50 [9]	anxiolytic activity (in words) [1]	minimal effective dose [10]
CC(C)CCC(/C=C/c1ccc(Cl)cc1)=N\OCCCN1CCCCC1 [Example 9, 1-(4-Chlorophenyl)-6-methyl-3-(E)-[3-(N-piperidinyl)-propoxyimino]-1-(E)-heptene]	> 30 mg/kg	> 1000 mg/kg	107 mg/kg	> 100 mg/kg	12 µM	16%	5.9 mg/kg	18.1	160 mg/kg	0.05 µM	–	–
CC(C)CC(/C=C/c1ccccc1)=N\OCCN1CCCCC1 [Example 10, 1-Phenyl-5-methyl-3-(E)-[2-(N-piperidinyl)-ethoxyimino]-1-(E)-hexene]	0.1 mg/kg	–	–	> 100 mg/kg	–	13%	–	–	–	–	the most active members in the structural group	10 mg/kg
CCCC(/C=C/c1ccccc1)=N\OCCCN(C)C [Example 21, 1-Phenyl-3-(E)-[3-(dimethylamino)-propoxyimino]-1-(E)-hexene]	0.03 mg/kg	–	–	> 100 mg/kg	–	7%	–	–	–	–	the most active members in the structural group	1 mg/kg
CCCC(C)(COC(N)=O)COC(N)=O [Meprobamate, reference compound]	25 mg/kg	–	–	–	–	–	–	–	–	–	–	> 10 mg/kg

— patent US5486528A, “Basic ethers and process for the preparation thereof” (Egis Gyogyszergyar Rt., priority 1993, dated 1996)
